# US20230091608A1, “COMPOUND AND DIAGNOSTIC SYSTEM COMPRISING SAID COMPOUND FOR THE GUSTATORY DETECTION OF INFLAMMATIONS IN THE ORAL CAVITY” (Julius-Maximilians-Universitaet Wuerzburg, priority 2019, published 2023)
# Test system: aminopeptidase (AP)
# Test: Cleavage of [Ia-X] constructs by aminopeptidase (AP), LC/MS for complete degradation
# Format: biochemical
# Experimental: To trigger maximum gustatory perception, the last amino acid from the modified denatonium must also be removed by the aminopeptidase.
# The resulting constructs were incubated with AP for 24 h and analyzed by LC/MS for complete degradation (Table 2).
row,Compound,Detectable after 24 h incubation with AP
1,N[C@@H](Cc1ccccc1)C(=O)O [Phenylalanine],−
2,Alanine,−
3,Arginine,−
4,CC[C@H](C)[C@H](N)C(=O)O [Isoleucine],+
5,Lysine,−
6,N[C@@H](CO)C(=O)O [Serine],−
7,NCC(=O)O [Glycine],+
8,CSCC[C@H](N)C(=O)O [Methionine],−
9,NC(=O)CC[C@H](N)C(=O)O [Glutamine],+
10,N[C@@H](CC(=O)O)C(=O)O [Aspartic acid],+
11,CC(C)C[C@H](N)C(=O)O [Leucine],−
12,N[C@@H](Cc1c[nH]c2ccccc12)C(=O)O [Tryptophan],+
13,NC(=O)C[C@H](N)C(=O)O [Asparagine],+
14,N[C@@H](Cc1c[nH]cn1)C(=O)O [Histidine],+
15,Proline,+
16,N[C@@H](CS)C(=O)O [Cysteine],−
17,Tyrosine,−
18,N[C@@H](CCC(=O)O)C(=O)O [Glutamic acid],−
19,C[C@@H](O)[C@H](N)C(=O)O [Threonine],+
20,CC(C)[C@H](N)C(=O)O [Valine],+
